The values that follow come from patent US5688773A, “Method of selectively destroying neoplastic cells” (priority 1994, dated 1997).

For data set [1], the system named is C6 cells co-cultured with C6-P450 cells. Description: Co-culture assay (cell-mediated effect). Type of data set: cell-based, rat. The settings on record: 0.5 mM CPA; for inhibition at 500 µM: Rattus norvegicus, C6, 96 h, 4 days, read-out: decrease in the proliferation of C6 cells. As to the method: Co-culture assay: Co-cultures of C6-P450 and C6 cells were incubated in triplicate at different ratios (where 0, 10, 50, 90, and 100% of the cells were C6-P450 cells) to achieve a total number of 2×10^6 cells/10 cm dish. After 24 hours, 0.5 mM CPA was added and four days later, cells were counted as previously described. To compare the killing achieved by cell contact with that obtained by exposure to conditioned medium, the supernatant from each co-culture was harvested, filtered through 0.45 μm membrane filters, mixed in a 1:1 ratio with 5 mL of fresh medium and added to overnight cultures of C6 cells (2×10^6 cells/10 cm dish in triplicate). Four days later, C6 cells were washed, harvested and counted. To determine the specificity of the cell-mediated killing effect from the co-culture assays, C6 cells were incubated overnight with C6 cells that expressed the neomycin phosphotransferase gene (C6-Neo), with irradiated C6 cells, with irradiated C6-Neo, and with irradiated C6-P450 cells. γ-irradiation was performed by exposing cells to a total of 6000 rads emitted by a ^51 chromium source.

The test system of data set [2] is C450-8 cells. Description: cells. Conditions: Rattus norvegicus, read-out: CPA concentration reducing the number of cells by 50%. The procedure:
Cyclophosphamide Dose-Response Assay: For dose-response curves, cells were plated at a density of 2×10^5 cells/100 mm dish (Corning) in quintuplicate. Two days later CPA was added to final concentrations of 0-100 μM. Five days after plating, the monolayers were rinsed twice with Hank's buffered saline (GIBCO) to remove dead cells. Monolayers were dispersed using trypsin-EDTA (GIBCO), and cell numbers were determined using a Coulter counter (Coulter Electronics Inc.).

The subject of data set [3] is C6 cells co-cultured with C6-P450 cells across a filter. Description: Secretory effect assay (insert system). Type of data set: cell-based. Conditions: Rattus norvegicus. As to the method:
Secretory effect assay: To assess the effect of conditioned medium, cells were co-cultured in dishes using the "insert" system (Falcon). This consists of tissue culture dishes (diameter=3.5 cm), which contain a micropore membrane (pore diameter=0.45 μm) that physically separates cell populations plated into the upper and lower chambers but permits the exchange of components in the medium. C6 cells (3.4×10^5 cells) were plated into the bottom chamber, while C6-P450 (3.4×10^5 cells) or C6-Neo cells (3.4×10^5 cells) were plated into the upper chamber (on top of the filter) in a total volume of 5 mL of medium. After an overnight incubation, 0.5 mM CPA was added to this medium. Four days later, the membrane on which the C6-P450 or C6-Neo cells were growing was removed and then the number of C6 glioma cells in the lower chamber was determined by counting with a Coulter apparatus. Surviving C6 cells were then replated at a density of 2×10^5 cells per 10 cm dish without CPA. Nine days later, these cells were trypsinized and counted using the Coulter apparatus.

The test system of data set [4] is cytochrome P450 2B1-expressing MCF-7 cell lines P2, P3, P5, P8, P9 and P26. Description: Cyclophosphamide sensitivity of MCF-7 cell lines in culture. The class given is cell-based, human. As to the method:
(§1) To test for drug sensitivity, 1×10^5 cells were plated in 30-mm tissue culture plates (Falcon 3046) in duplicate. Drugs were added 18-24 hours after seeding. Cells were allowed to grow for times ranging up to 5 days after drug treatment, and the final cell number was then determined. Cells were rinsed with phosphate buffered saline or Hank's buffered saline, dispersed using trypsin-EDTA (GIBCO/BRL, Inc.), and then counted with a hemocytometer. Results are expressed as a growth ratio, i.e., the number of cells in plates containing drug as a percentage of the corresponding drug-free controls (mean±range of duplicate determinations).
(§2) Transfection of MCF-7 cells with the cytochrome P450 2B1 expression plasmid, selection of neomycin-resistant clones, characterization of the expressed cytochrome P450 2B1 protein, and sensitivity of cell lines to drugs were carried out as described in Example 7 for the 9L cytochrome P450 2B1-expressing cell lines.

Data set [5] relates to parental MCF-7 cells. The data set is described as above. Type of data set: cell-based, human. As to the method:
as §1, §2

For data set [6], the system named is MCF-7-Z3 cells. The description is as above. The class given is cell-based, human. The procedure:
as §1, §2

The test system of data set [7] is C6VIK-WT cells. Description: GCV killing in culture. The class given is cell-based. The settings on record: Rattus norvegicus, read-out: GCV concentration at which 50% of cells were killed. The text has this:
(§3) Retroviral vectors can be used to transfer genes into the genome of dividing cells. In order to increase the efficiency of gene delivery and killing effect of ganciclovir, a new packaging line (C6VIK-WT) was developed by infecting C6VIK cells with an ecotropic wild-type retrovirus (MoMLV). See Mann et al., Cell 33:153-159 (1983); Price et al., Proc. Natl. Acad. Sci. USA 84:156-160 (1987); and Cepko, C., in Neuromethods, vol. 16, Molecular Neurobiological Techniques, Boulton et al., eds., The Humana Press, Clifton, N.J. (1989), pp. 177-219. Because tumor cells can migrate deep into brain parenchyme, they should be able to deliver the vector to tumor cells away from the tumor mass. In culture, 50% of C6VIK-WT cells were killed at 0.024 μM GCV, while it took 7.3 μM GCV to kill 50% of C6VIK cells. […] When C6VIK and C6VIK-WT were cultured with C6BAG cells (labelled with the lacZ gene and thus detectable by beta-galactosidase histochemistry), following GCV treatment substantially more C6BAG cells were killed when co-cultured with C6VIK-WT than with C6VIK cells. Presumably C6VIK-WT cells produce both wild-type retrovirus and retrovirus vectors containing the HSV-TK gene (neither of which are produced by C6VIK cells) and death of C6BAG cells might be mediated by retrovirus infection and/or self-generated GCV toxic products.

Data set [8] has as its system C6VIK cells. Description: GCV killing in culture. The settings on record: Rattus norvegicus, read-out: GCV concentration at which 50% of cells were killed. Type of data set: cell-based.
Description: as §3

Data set [9] deals with C6VIK cells. The settings on record: subcutaneous, nude mice; cited from earlier work.

Where two headings read alike, the source gives them in different places.

`O=P1(N(CCCl)CCCl)NCCCO1` (stereo not drawn) [cyclophosphamide]: in data set [1] (90% C6-P450 cells, four days), the “Inhibition of proliferation of remaining C6 cells” value is reported as “complete inhibition”. Moreover, the inhibition at 500 µM in data set [1] (10% of cells express the P450 gene) is 75%; in data set [1] (50% of cells contain the P450 gene), about 85%; in data set [3] (C6, 96 h, 0.5 mM CPA, 1:1 ratio, four days, read-out: decrease in the number of C6 cells), about 50%; in data set [3] (C6, 216 h, replated without CPA, nine days, read-out: decrease in C6 cell number after trypsinization and replating), about 90%. In data set [2], the IC50 turned out to be 27 µM. In data set [4], the “Sensitivity to cyclophosphamide cytotoxicity” value is “highly sensitive”. Further, the Sensitivity to cyclophosphamide result in [5] and in data set [6] was “insensitive to high concentrations” each time.
Take `Nc1nc(O)c2ncn(COC(CO)CO)c2n1` [ganciclovir]: the IC50 in data set [7] stood at 0.024 µM; in data set [8], 7.3 µM. In addition, the Tumor growth entry in data set [9] is “inhibited tumor growth”.
